{
  "source": "patent US20080305186A1",
  "about": "“Method and Composition for the Treatment of Cardiac Hypertrophy” (BOARD OF REGENTS, THE UNIVERSITY OF TEXAS SYSTEM, priority 2007, published 2008)",
  "test_system": "cardiac gene expression",
  "assay": "Microarray analysis of cardiac gene expression (GeneChip Mouse Genome 430 2.0)",
  "assay_type": "in vivo, mice",
  "procedure": "Microarray Sample Preparation and Analysis. Animal hearts were rapidly removed, and the atria and right ventricles were cut and immediately plunged into TRIzol Reagent (Life Technologies). Total RNA was isolated following the manufacturer's instructions, purified by phenol-chloroform extraction and then ethanol precipitation, and 20 μg further processed for microarray analysis. Briefly, cDNA synthesis, in vitro transcription, and labeling and fragmentation to produce the oligonucleotide probes were performed as instructed by the GeneChip manufacturer (Affymetrix). The probes were first hybridized to a test array (Affymetrix) and then to the GeneChip Mouse Genome 430 2.0 Array, using the GeneChip Hybridization Oven 640. The chips were washed in a GeneChip Fluidics Station 450 (Affymetrix), and the results were visualized with a GeneChip G7 scanner (Affymetrix). RMA normalization, pairwise comparisons, Student's t test and Benjamini and Hochberg correction were subsequently performed using GeneSifter (VizX Labs, Seattle, Wash.) and Spotfire DecisionSite 8.3 (Spotfire, Inc., Somerville, Mass.).\nEffects on Gene Expression Profile. […] One mouse heart was used for each array, and was performed in triplicate, generating a total of 12 arrays. GeneSifter was used to perform RMA normalization, pairwise comparisons of averaged signal intensity values, and Student's t-test with Benjamini and Hochberg correction, and Spotfire was used to perform pairwise comparisons. […] Additionally, genes that were altered between any two N or cardiac hypertrophy samples were removed, as these alterations most likely represented normal variations between mice.",
  "key": {"[1]": {"details": "CH vs drug-treated isoproterenol mice"}},
  "data": [
    {"smiles": "C[C@H]1c2cccc(O)c2C(=O)C2=C(O)[C@]3(O)C(=O)C(C(N)=O)=C(O)[C@@H](N(C)C)[C@@H]3[C@@H](O)[C@@H]21", "note": "[doxycycline]", "values": [
      {"measurement": "Number of Altered Genes, Average FC (1.5-fold)", "setting": "[1]", "value": 2929},
      {"measurement": "Number of Altered Genes, Average FC (2-fold)", "setting": "[1]", "value": 417},
      {"measurement": "Number of Altered Genes, Minus disease variability", "setting": "[1]", "value": 578},
      {"measurement": "Number of Altered Genes, Minus natural variability", "setting": "[1]", "value": 994},
      {"measurement": "Number of Altered Genes, Reproducible", "setting": "[1]", "value": 497},
      {"measurement": "Number of Altered Genes, Student's t test", "setting": "[1]", "value": 2274},
      {"measurement": "Number of Altered Genes, Correction", "setting": "CH vs drug-treated isoproterenol mice, Benjamini and Hochberg", "value": 2034},
      {"measurement": "Number of Altered Genes, Disease-specific", "setting": "CH vs drug-treated isoproterenol mice, of 779 genes altered N vs CH, altered in the reverse direction", "value": 327},
      {"measurement": "FC EST", "setting": "GenBank AA419994, vs mice given only isoproterenol", "value": "−1.7"},
      {"measurement": "FC Metallothionein 2 (Mt2)", "setting": "GenBank AA796766, vs mice given only isoproterenol", "value": "−5.5"},
      {"measurement": "FC Prostaglandin D synthetase (Ptgds)", "setting": "GenBank AB006361, vs mice given only isoproterenol", "value": "−2.0"},
      {"measurement": "FC Potassium channel, subfamily K, member 3 (Kcnk3)", "setting": "GenBank AF065162, vs mice given only isoproterenol", "value": 1.7},
      {"measurement": "FC Small inducible cytokine A9 (Scya9) (Ccl9) (Mip-1[…])", "setting": "GenBank AF128196, vs mice given only isoproterenol", "value": "−2.0"},
      {"measurement": "FC Group V phospholipase A2 (Pla2g5)", "setting": "GenBank AF162713, vs mice given only isoproterenol", "value": 2.2},
      {"measurement": "FC GABA-A receptor-associated protein-like protein 1 (Gabarapl1)", "setting": "GenBank AF180518, 1st listing, vs mice given only isoproterenol", "value": "−3.6"},
      {"measurement": "FC GABA-A receptor-associated protein-like protein 1 (Gabarapl1)", "setting": "GenBank AF180518, 2nd listing, vs mice given only isoproterenol", "value": "−3.1"},
      {"measurement": "FC Toll-like receptor 4 (TLR4)", "setting": "GenBank AF185285, heart, drug + isoproterenol vs isoproterenol-only mice, CH vs normal FC 2.2", "value": "−1.9", "unit": "fold"},
      {"measurement": "FC TSC22-related inducible leucine zipper 3c (Tilz3c) (Dsip1)", "setting": "GenBank AF201289, heart, drug + isoproterenol vs isoproterenol-only mice, CH vs normal FC 2.7", "value": "−2.3", "unit": "fold"},
      {"measurement": "FC Homeodomain interacting protein kinase 2 (Hipk2)", "setting": "GenBank AF208292, vs mice given only isoproterenol", "value": 1.9},
      {"measurement": "FC Cytochrome b-5 reductase (Cyb5r3)", "setting": "GenBank AF332060, vs mice given only isoproterenol", "value": 1.7},
      {"measurement": "FC Transcription factor myocardin (Myocd)", "setting": "GenBank AF384055, heart, drug + isoproterenol vs isoproterenol-only mice, CH vs normal FC −1.6", "value": 4.0, "unit": "fold"},
      {"measurement": "FC F-box-WD40 repeat protein 6 (Fbxw6)", "setting": "GenBank AF391192, vs mice given only isoproterenol", "value": 2.9},
      {"measurement": "FC F-box only protein 32 (Fbxo32)", "setting": "GenBank AF441120, vs mice given only isoproterenol", "value": "−3.3"},
      {"measurement": "FC FK506 binding protein 5 (51 kDa) (Fkbp5)", "setting": "GenBank AI098139, vs mice given only isoproterenol", "value": "−4.1"},
      {"measurement": "FC Myosin binding protein C, fast-type (Mybpc2)", "setting": "GenBank AI326984, vs mice given only isoproterenol", "value": "−3.2"},
      {"measurement": "FC Heparan sulfate 2-O-sulfotransferase 1 (Hs2st1)", "setting": "GenBank AI451467, vs mice given only isoproterenol", "value": 2.2},
      {"measurement": "FC EST", "setting": "GenBank AI467657, 1st listing, vs mice given only isoproterenol", "value": "−1.9"},
      {"measurement": "FC EST", "setting": "GenBank AI467657, 2nd listing, vs mice given only isoproterenol", "value": "−1.6"},
      {"measurement": "FC EST", "setting": "GenBank AI480750, vs mice given only isoproterenol", "value": 1.7},
      {"measurement": "FC Interferon activated gene 205 (Ifi205)", "setting": "GenBank AI481797, vs mice given only isoproterenol", "value": "−2.2"},
      {"measurement": "FC Protein tyrosine phosphatase, receptor-type, F interacting protein, binding protein 2 (Ppfibp2)", "setting": "GenBank AI503166, vs mice given only isoproterenol", "value": "−2.0"},
      {"measurement": "FC Dipeptidase 1 (Dpep1)", "setting": "GenBank AI647687, vs mice given only isoproterenol", "value": "−2.0"},
      {"measurement": "FC Homocysteine-inducible, endoplasmic reticulum stress-inducible, ubiquitin-like domain member 1 (Herpud1)", "setting": "GenBank AI835088, vs mice given only isoproterenol", "value": "−3.0"},
      {"measurement": "FC Sulfotransferase family 1A, phenol-preferring, member 1 (Sult1a1)", "setting": "GenBank AK002700, vs mice given only isoproterenol", "value": "−3.7"},
      {"measurement": "FC GPI-ahored HDL-binding protein 1 (Gpihbp1)", "setting": "GenBank AK003305, vs mice given only isoproterenol", "value": "−1.8"},
      {"measurement": "FC Ets variant gene 5 (Etv5)", "setting": "GenBank AK003461, vs mice given only isoproterenol", "value": "−2.0"},
      {"measurement": "FC Peptidylprolyl isomerase (cyclophilin)-like 1 (Ppil1)", "setting": "GenBank AK004331, vs mice given only isoproterenol", "value": 1.8},
      {"measurement": "FC Extra cellular link domain-containing 1 (Xkd1)", "setting": "GenBank AK004726, vs mice given only isoproterenol", "value": "−1.8"},
      {"measurement": "FC SRY-box containing gene 17 (Sox17)", "setting": "GenBank AK004781, vs mice given only isoproterenol", "value": "−1.6"},
      {"measurement": "FC Phospholipase A2 group VII (platelet-activating factor acetylhydrolase, plasma) (Pla2g7)", "setting": "GenBank AK005158, vs mice given only isoproterenol", "value": "−2.2"},
      {"measurement": "FC Methyl-CpG binding domain protein 1 (Mbd1)", "setting": "GenBank AK007371, 1st listing, vs mice given only isoproterenol", "value": "−2.5"},
      {"measurement": "FC Methyl-CpG binding domain protein 1 (Mbd1)", "setting": "GenBank AK007371, 2nd listing, vs mice given only isoproterenol", "value": "−2.0"},
      {"measurement": "FC Homeobox only domain (Hod)", "setting": "GenBank AK009007, vs mice given only isoproterenol", "value": 1.5},
      {"measurement": "FC F-box and leucine-rich repeat protein 20 (Fbxl20)", "setting": "GenBank AK012109, vs mice given only isoproterenol", "value": "−2.0"},
      {"measurement": "FC Dual specificity phosphatase 4 (Dusp4)", "setting": "GenBank AK012530, vs mice given only isoproterenol", "value": "−2.4"},
      {"measurement": "FC Hydroxyacylglutathione hydrolase-like (Haghl)", "setting": "GenBank AK012748, vs mice given only isoproterenol", "value": 2.0},
      {"measurement": "FC Leucine-rich repeat-containing 52 (Lrrc52)", "setting": "GenBank AK015134, vs mice given only isoproterenol", "value": "−2.6"},
      {"measurement": "FC Sphingosine kinase 2 (Sphk2)", "setting": "GenBank AK016616, vs mice given only isoproterenol", "value": 1.5},
      {"measurement": "FC DNA-damage-inducible transcript 4 (Ddit4)", "setting": "GenBank AK017926, vs mice given only isoproterenol", "value": "−5.6"},
      {"measurement": "FC Kelch-like 24 (Khl24)", "setting": "GenBank AK018314, vs mice given only isoproterenol", "value": "−2.1"},
      {"measurement": "FC Transforming, acidic coiled-coil containing protein (Tacc1)", "setting": "GenBank AK019530, heart, drug + isoproterenol vs isoproterenol-only mice, CH vs normal FC −2.1", "value": 3.2, "unit": "fold"},
      {"measurement": "FC Protein arginine N-methyltransferase 1 (Prmt1)", "setting": "GenBank AK020120, vs mice given only isoproterenol", "value": 1.8},
      {"measurement": "FC Hydroxyacylglutathione hydrolase-like (Haghl)", "setting": "GenBank AK021220, vs mice given only isoproterenol", "value": 1.8},
      {"measurement": "FC Phosphodiesterase 7A (Pde7a)", "setting": "GenBank AU015378, vs mice given only isoproterenol", "value": "−2.2"},
      {"measurement": "FC p53 regulated PA26 nuclear protein (Sestrin 1) (Sesn1)", "setting": "GenBank AV016566, vs mice given only isoproterenol", "value": "−2.3"},
      {"measurement": "FC EST", "setting": "GenBank AV032877, vs mice given only isoproterenol", "value": "−1.5"},
      {"measurement": "FC Ectonucleoside triphosphate diphosphohydrolase 1 (Entpd1)", "setting": "GenBank AV117919, vs mice given only isoproterenol", "value": "−2.1"},
      {"measurement": "FC F-box and leucine-rich repeat protein 20 (Fbxl20)", "setting": "GenBank AV120094, vs mice given only isoproterenol", "value": "−1.5"},
      {"measurement": "FC Transthyretin (Ttr)", "setting": "GenBank AV152953, heart, drug + isoproterenol vs isoproterenol-only mice, CH vs normal FC 4.4", "value": "−2.8", "unit": "fold"},
      {"measurement": "FC Solute carrier family 10 (sodium/bile acid cotransporter family), member 6 (Slc10a6)", "setting": "GenBank AV244484, vs mice given only isoproterenol", "value": "−5.3"}
    ]}
  ]
}
